Results: patent publication US9376420B2 (YUHAN CORPORATION, priority 2012, dated 2016)

Target: T1, human LXRβ (Homo sapiens, UniProt P55055)
T1 construct: expressed in transfected cells; host or cells: HEK293 cells (ATCC CRL-1573), transient transfection with pFA-hLXRβ/GAL4 and pUAS
T1 sequence (P55055 222-460 limits assumed): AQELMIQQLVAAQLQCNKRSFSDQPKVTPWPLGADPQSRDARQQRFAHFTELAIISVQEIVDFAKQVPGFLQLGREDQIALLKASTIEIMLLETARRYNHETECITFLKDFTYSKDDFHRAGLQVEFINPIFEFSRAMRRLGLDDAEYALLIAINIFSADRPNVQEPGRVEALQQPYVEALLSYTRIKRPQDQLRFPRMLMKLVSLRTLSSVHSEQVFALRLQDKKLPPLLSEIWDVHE
Experiment: Assay for Transcriptional Activity of LXRβ (GAL4-hLXRβ LBD luciferase reporter, transient transfection)
Assay type: cell-based
Conditions: HEK293 cells transfected with pFA-hLXRβ/GAL4 and pUAS, 24 hours; for Emax: fold value in comparison with the control (DMSO-treated group); for EC50: increase of transcriptional activity of LXRβ, average of three independent tests
Description: The ligand-binding domain (LBD) cDNA of human LXRβ was inserted into an expression vector (pFA, Stratagene, USA) site adjacent to the yeast GAL4 transcription factor DNA binding domain to prepare an expression construct (pFA-hLXRβ/GAL4) (Willey et al., Genes & Development 9 1033-1045 (1995). The GAL4-responsive luciferase reporter plasmid, i.e., pUAS (Stratagene, USA), contained five copies of the GAL4 response element placed adjacent to the promoter and the luciferase reporter gene. The pFA-hLXRβ/GAL4 and pUAS were introduced into mammalian cells through transient transfection, followed by measuring the transcriptional activity of LXRβ.
HEK293 cells (human kidney cells, sATCC, CRL-1573) were incubated at a T-75 flask containing a DMEM supplemented with 10% fetal bovine serum (FBS) in a 37° C., until they reach about 70˜80% confluency. The culture media containing the cells was added to each well of a 96-well plate in a density of 5×10^4 cells per well. The pFA-hLXRβ/GAL4 and pUAS was transfected to the cells using a cationic-lipid transfection reagent (Lipofectamine™, Invitrogen), through culturing at 37° C. for 3 hours for transient transfection according to the manufacturer's instruction. The test compounds were dissolved in dimethyl sulfoxide (DMSO) in the concentrations of 50, 30, 10, 3, 1, 0.3, 0.1, 0.03, and 0.01 μM and then cells were treated with the prepared compound-containing solution (100 μl). The cells were incubated at 37° C. for 24 hours. After removal of the medium from each well, the lysis buffer (25 mM Tricine pH7.8, 2 mM DTT, 2 mM EGTA, 10% glycerol, 1% Triton X-100) was added with the amount of 20 μl per each well, and the plate was stirred at room temperature for 15 minutes. The luciferase reagent (prepared by adding 10 ml of the luciferase buffer (Promega) to 1 vial of the luciferase substrate (Promega)) was added to each well with the amount of 100 μl per well, followed by assaying with a luminometer according to the manufacturer's instruction.
The dose-response curve for calculating the EC50 values of the test compounds on the increase of transcriptional activity of LXRβ was prepared using the known LXR agonist (i.e., N-(2,2,2-trifluoro-ethyl)-N-[4-(2,2,2-trifluoro-1-hydroxy-1-trifluoromethyl-ethyl)-phenyl]-benzenesulfonamide) as a positive control and the vehicle (DMSO) as a negative control. The dose-response curve was produced from the 9-point curve having different concentrations at a 1/2 log unit. The EC50 value of a test compound, which is defined as a concentration for initiating the reaction corresponding to the half value between the Top value (i.e., the maximum value) and the Bottom value (baseline), was calculated according to the following equation. Y=Bottom+(Top-Bottom)/(1+10^((log EC50-X)*Hill Slope)).
In the above equation, Y is the observed value; X is the log concentration; Hill Slope is the slope of the curve; and Top and Bottom are the maximum value of test compound and the baseline value, respectively.
The following tables 1 and 2 show the EC50 values of the test compounds measured as in the above. In the tables 1 and 2, each EC50 value represents an average value obtained from three independent tests.

SMILES | Emax [fold] | EC50 [nM]
CS(=O)(=O)c1cccc(-c2cccc(N3N=C(C(F)(F)C(F)(F)F)CC3c3ccc(F)cc3F)c2)c1 (stereo not drawn) [Example 206, 5-(2,4-difluoro-phenyl)-1-[3′-(methylsulfonyl)-biphenyl-3-yl]-3-pentafluoroethyl-4,5-dihydro-1H-pyrazole] | 87 | 1400
CS(=O)(=O)c1ccc(-c2ccc(C3CC(C(O)(C(F)(F)F)C(F)(F)F)=NN3c3ccccc3Cl)s2)cn1 (stereo not drawn) [Example 420, 1-(2-chloro-phenyl)-5-{5-[6-(methylsulfonyl)-pyridin-3-yl]-thiophen-2-yl}-3-[di-(trifluoromethyl)-hydroxy-methyl]-4,5-dihydro-1H-pyrazole] | 80 | –
O=C(O)C(F)(F)F.OC(C1=NN(c2ccccc2Cl)C(c2cccc(C3=CCNCC3)c2)C1)(C(F)(F)F)C(F)(F)F (stereo not drawn) [Example 230, 1-(2-chloro-phenyl)-5-[3-(1,2,3,6-tetrahydropyridin-4-yl)-phenyl]-3-[di-(trifluoromethyl)-hydroxy-methyl]-4,5-dihydro-1H-pyrazole trifluoroacetate] | 137 | 36
OC(C1=NN(c2ccc(F)cc2F)C(c2ccc(-c3ccccn3)cc2)C1)(C(F)(F)F)C(F)(F)F (stereo not drawn) [Example 385, 1-(2,4-difluoro-phenyl)-5-[4-pyridin-2-yl-phenyl]-3-[di-(trifluoromethyl)-hydroxy-methyl]-4,5-dihydro-1H-pyrazole] | 60 | 771
CS(=O)(=O)c1cccc(-c2cc(C3CC(C(F)(F)C(F)(F)F)=NN3c3ccc(F)cc3F)ccn2)c1 (stereo not drawn) [Example 188, 1-(2,4-difluoro-phenyl)-5-[2-(3-methanesulfonyl-phenyl)-pyridin-4-yl]-3-pentafluoroethyl-4,5-dihydro-1H-pyrazole] | 107 | 304
CS(=O)(=O)N1CC=C(c2ccc(C3CC(C(O)(C(F)(F)F)C(F)(F)F)=NN3c3ccccc3Cl)cc2)CC1 (stereo not drawn) [Example 298, 1-(2-chloro-phenyl)-5-[4-(1-methanesulfonyl-1,2,3,6-tetrahydropyridin-4-yl)-phenyl]-3-[di-(trifluoromethyl)-hydroxy-methyl]-4,5-dihydro-1H-pyrazole] | 88 | 304
CS(=O)(=O)N1CC=C(c2ccc(C3CC(C(O)(C(F)(F)F)C(F)(F)F)=NN3c3ccccc3Cl)cn2)CC1 (stereo not drawn) [Example 358, 1-(2-chloro-phenyl)-5-[6-(1-methanesulfonyl-1,2,3,6-tetrahydropyridin-4-yl)-pyridin-3-yl]-3-[di-(trifluoromethyl)-hydroxy-methyl]-4,5-dihydro-1H-pyrazole] | 90 | 719
CS(=O)(=O)c1ccc(-c2cc(C3CC(C(F)(F)C(F)(F)F)=NN3c3ccc(F)cc3F)ccn2)cn1 (stereo not drawn) [Example 189, 1-(2,4-difluoro-phenyl)-5-[2-(6-methanesulfonyl-pyridin-3-yl)-pyridin-4-yl]-3-pentafluoroethyl-4,5-dihydro-1H-pyrazole] | 56 | 2720
CS(=O)(=O)c1cc(-c2cccc(C3CC(C(F)(F)C(F)(F)F)=NN3c3ccc(F)cc3F)c2)cc(F)c1CO (stereo not drawn) [Example 76, 1-(2,4-difluoro-phenyl)-5-[3′-fluoro-4′-(hydroxymethyl)-5′-(methylsulfonyl)-biphenyl-3-yl]-3-pentafluoroethyl-4,5-dihydro-1H-pyrazole] | 84 | 189
CC(C)(C)OC(=O)N1CCN(c2ccc(C3CC(C(O)(C(F)(F)F)C(F)(F)F)=NN3c3ccc(F)cc3F)cc2)CC1 (stereo not drawn) [Example 404, 1-(2,4-difluoro-phenyl)-5-[4-(4-BOC-piperazin-1-yl)-phenyl]-3-[di-(trifluoromethyl)-hydroxy-methyl]-4,5-dihydro-1H-pyrazole] | 15 | 5270
CS(=O)(=O)c1ccc(-c2cccc(C3CC(C(F)(F)C(F)(F)F)=NN3c3ccccc3Cl)c2)cc1 (stereo not drawn) [Example 106, 1-(2-chloro-phenyl)-5-(4′-methylsulfonyl-biphenyl-3-yl)-3-pentafluoroethyl-4,5-dihydro-1H-pyrazole] | 85 | 1160
CN(CCO)S(=O)(=O)c1cccc(-c2ccc(C3CC(C(O)(C(F)(F)F)C(F)(F)F)=NN3c3ccccc3Cl)cc2)c1 (stereo not drawn) [Example 283, 1-(2-chloro-phenyl)-5-{3′-[(2-hydroxy-ethyl)-methyl-sulfamoyl]-biphenyl-4-yl}-3-[di-(trifluoromethyl)-hydroxy-methyl]-4,5-dihydro-1H-pyrazole] | 51 | 270

Further molecules by falling EC50, results first:

Emax [fold] | EC50 [nM] | SMILES
43 | 4130 | CC(C)(C)OC(=O)N1CCN(c2ccc(C3CC(C(O)(C(F)(F)F)C(F)(F)F)=NN3c3ccccc3Cl)cn2)CC1 (stereo not drawn) [Example 355, 1-(2-chloro-phenyl)-5-[6-(4-BOC-piperazin-1-yl)-pyridin-3-yl]-3-[di-(trifluoromethyl)-hydroxy-methyl]-4,5-dihydro-1H-pyrazole]
62 | 2350 | Oc1cccc(-c2ccc(C3CC(C(O)(C(F)(F)F)C(F)(F)F)=NN3c3ccccc3Cl)cc2)c1 (stereo not drawn) [Example 252, 1-(2-chloro-phenyl)-5-(3′-hydroxy-biphenyl-4-yl)-3-[di-(trifluoromethyl)-hydroxy-methyl]-4,5-dihydro-1H-pyrazole]
87 | 1240 | Cc1cccc(-c2ccc(C3CC(C(O)(C(F)(F)F)C(F)(F)F)=NN3c3ccccc3Cl)cc2)n1 (stereo not drawn) [Example 276, 1-(2-chloro-phenyl)-5-[4-(6-methyl-pyridin-2-yl)-phenyl]-3-[di-(trifluoromethyl)-hydroxy-methyl]-4,5-dihydro-1H-pyrazole]
54 | 699 | OC(C1=NN(c2ccccc2Cl)C(c2ccc(-c3cccnc3F)cc2)C1)(C(F)(F)F)C(F)(F)F (stereo not drawn) [Example 261, 1-(2-chloro-phenyl)-5-[4-(2-fluoro-pyridin-3-yl)-phenyl]-3-[di-(trifluoromethyl)-hydroxy-methyl]-4,5-dihydro-1H-pyrazole]
103 | 692 | CS(=O)(=O)c1cccc(-c2ccc(C3CC(C(F)(F)C(F)(F)F)=NN3c3ccc(F)cc3F)cc2)c1 (stereo not drawn) [Example 18, 1-(2,4-difluoro-phenyl)-5-(3′-methanesulfonyl-biphenyl-4-yl)-3-pentafluoroethyl-4,5-dihydro-1H-pyrazole]
45 | 547 | Cc1ccncc1-c1ccc(C2CC(C(O)(C(F)(F)F)C(F)(F)F)=NN2c2ccccc2Cl)cc1 (stereo not drawn) [Example 271, 1-(2-chloro-phenyl)-5-[4-(4-methyl-pyridin-3-yl)-phenyl]-3-[di-(trifluoromethyl)-hydroxy-methyl]-4,5-dihydro-1H-pyrazole]
88 | 452 | OC(C1=NN(c2ccccc2Cl)C(c2ccc(-c3ccc(F)nc3)cc2)C1)(C(F)(F)F)C(F)(F)F (stereo not drawn) [Example 268, 1-(2-chloro-phenyl)-5-[4-(6-fluoro-pyridin-3-yl)-phenyl]-3-[di-(trifluoromethyl)-hydroxy-methyl]-4,5-dihydro-1H-pyrazole]
83 | 0.4 | CN(CCCS(=O)(=O)c1cccc(-c2ccc(C3CC(C(O)(C(F)(F)F)C(F)(F)F)=NN3c3ccc(F)cc3F)cc2)c1)C(=O)OC(C)(C)C (stereo not drawn) [Example 395, 5-{3′-[3-(N-BOC-N-methyl-amino)-propane-1-sulfonyl]-biphenyl-4-yl}-1-(2,4-difluoro-phenyl)-3-(di-(trifluoromethyl)-hydroxy-methyl)-4,5-dihydro-1H-pyrazole]
